The text below walks through data of ChEMBL document CHEMBL1137844, “Design, synthesis and structure-activity relationship of novel RXR-selective modulators” (Bioorg Med Chem Lett, 2004).

For assay [1], the target named is T1, Retinoic acid receptor RXR-beta (Homo sapiens, UniProt P28702).
T1 sequence (P28702 whole entry): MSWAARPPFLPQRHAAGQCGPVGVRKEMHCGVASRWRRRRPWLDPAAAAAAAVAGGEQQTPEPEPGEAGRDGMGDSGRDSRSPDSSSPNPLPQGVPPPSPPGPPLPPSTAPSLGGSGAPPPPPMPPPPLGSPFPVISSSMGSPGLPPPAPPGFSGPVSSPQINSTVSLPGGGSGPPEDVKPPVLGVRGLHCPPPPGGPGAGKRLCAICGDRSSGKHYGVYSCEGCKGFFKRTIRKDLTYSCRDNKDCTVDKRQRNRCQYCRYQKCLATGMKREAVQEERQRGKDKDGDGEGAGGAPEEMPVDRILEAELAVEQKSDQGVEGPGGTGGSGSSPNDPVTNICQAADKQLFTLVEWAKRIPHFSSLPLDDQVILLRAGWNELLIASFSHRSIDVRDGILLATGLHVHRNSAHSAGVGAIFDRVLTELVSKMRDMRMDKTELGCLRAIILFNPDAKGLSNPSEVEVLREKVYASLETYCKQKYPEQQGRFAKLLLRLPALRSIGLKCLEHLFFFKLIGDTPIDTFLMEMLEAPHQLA
Briefly: Displacement of [3H]9-cis-RA from Retinoic X receptor beta. Background: Displacement assays read how much labelled ligand stays bound in the presence of the test substance.

Assay [2] concerns the target T2, Retinoic acid receptor RXR-alpha (Homo sapiens, UniProt P19793).
T2 sequence (P19793 whole entry): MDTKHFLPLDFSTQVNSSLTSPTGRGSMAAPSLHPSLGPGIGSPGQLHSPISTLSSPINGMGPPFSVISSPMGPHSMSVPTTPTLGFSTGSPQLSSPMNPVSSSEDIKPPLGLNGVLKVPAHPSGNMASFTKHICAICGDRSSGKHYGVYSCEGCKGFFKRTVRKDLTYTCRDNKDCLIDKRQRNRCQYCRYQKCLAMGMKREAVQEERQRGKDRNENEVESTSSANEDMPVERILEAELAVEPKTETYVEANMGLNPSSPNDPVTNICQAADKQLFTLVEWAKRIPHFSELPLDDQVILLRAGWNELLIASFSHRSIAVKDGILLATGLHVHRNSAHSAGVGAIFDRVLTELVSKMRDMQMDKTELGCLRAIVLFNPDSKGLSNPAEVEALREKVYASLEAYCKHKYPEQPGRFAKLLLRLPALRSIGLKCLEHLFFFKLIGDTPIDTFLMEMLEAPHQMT
Briefly: Binding affinity against Retinoic acid receptor RXR-alpha by [3H]9-cis-RA displacement.

The target in assay [3] is T2, Retinoic acid receptor RXR-alpha. Briefly: Transcriptional activation in CV-1 cells expressing Retinoid X receptor alpha. In kind it is cell-based.
The target in assay [4] is T3, Retinoic acid receptor alpha (Homo sapiens, UniProt P10276).
T3 sequence (P10276 whole entry): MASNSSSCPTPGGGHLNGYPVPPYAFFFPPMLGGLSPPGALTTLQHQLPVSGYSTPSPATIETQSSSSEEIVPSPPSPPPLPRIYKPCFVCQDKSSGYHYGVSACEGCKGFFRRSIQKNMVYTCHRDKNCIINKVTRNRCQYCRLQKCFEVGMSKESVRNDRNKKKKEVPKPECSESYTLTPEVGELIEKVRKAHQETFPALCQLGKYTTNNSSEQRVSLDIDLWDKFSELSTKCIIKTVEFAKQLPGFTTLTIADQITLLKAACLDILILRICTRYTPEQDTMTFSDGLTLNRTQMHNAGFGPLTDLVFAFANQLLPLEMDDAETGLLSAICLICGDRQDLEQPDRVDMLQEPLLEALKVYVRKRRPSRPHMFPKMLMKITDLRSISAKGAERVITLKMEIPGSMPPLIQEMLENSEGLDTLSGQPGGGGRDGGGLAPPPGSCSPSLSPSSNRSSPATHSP
Briefly: Binding affinity against retinoic acid receptor alpha by [3H]ATRA displacement.

In assay [5] the target is T4, Retinoic acid receptor RXR-gamma (Homo sapiens, UniProt P48443).
T4 sequence (P48443 whole entry): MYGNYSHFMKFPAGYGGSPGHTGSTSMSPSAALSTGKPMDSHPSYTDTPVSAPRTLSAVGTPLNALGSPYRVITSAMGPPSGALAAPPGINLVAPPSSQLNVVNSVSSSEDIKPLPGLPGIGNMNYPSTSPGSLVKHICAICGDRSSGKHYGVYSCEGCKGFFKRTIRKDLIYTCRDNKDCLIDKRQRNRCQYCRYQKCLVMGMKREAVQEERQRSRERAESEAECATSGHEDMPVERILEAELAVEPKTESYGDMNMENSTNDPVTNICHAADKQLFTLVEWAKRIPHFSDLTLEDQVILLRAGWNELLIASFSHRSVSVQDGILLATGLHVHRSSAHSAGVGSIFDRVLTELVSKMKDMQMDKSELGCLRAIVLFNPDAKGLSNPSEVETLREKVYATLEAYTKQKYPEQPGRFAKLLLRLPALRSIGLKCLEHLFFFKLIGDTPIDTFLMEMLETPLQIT
Briefly: Displacement of [3H]9-cis-RA from retinoic X receptor gamma.

Assay [6] deals with T2, Retinoic acid receptor RXR-alpha. Kind of assay: Antagonist activity for Retinoic X receptor alpha in CV1 cells. In kind it is functional, cell-based, CV-1.

For `C/C(=C\C(=O)O)c1cc2c(-c3cc(C(C)(C)C)cc(C(C)(C)C)c3C)cccc2s1`, the inhibition constant Ki – broadly, the equilibrium dissociation constant of an inhibitor or competing ligand from its target – in assay [1] was determined as 33 nM; in assay [2], 7 nM; in assay [4], 1790 nM; in assay [5], 54 nM. Moreover, the EC50 (as a rule, the concentration at which the effect is half-maximal) in assay [3] came to 39 nM.
With `C/C(=C/C=C/C(C)=C/C(=O)O)c1cc(C(C)(C)C)cc(C(C)(C)C)c1OCC(F)F`, the Ki in assay [1] is 18 nM; in assay [4], more than 1000 nM; in assay [5], 39 nM.
`CCCOc1c(-c2cccc3sc(/C(C)=C/C(=O)O)cc23)cc(C(C)C)cc1C(C)C`: the inhibition constant (Ki) was determined as 15 nM in assay [1], 6910 nM in assay [4] and 20 nM in assay [5]. Also, the half-inhibitory concentration (IC50) (in general, the midpoint of a concentration-inhibition curve) in assay [6] stood at 16 nM.
Regarding `C/C(=C\C(=O)O)c1cc2c(-c3cc(C(C)(C)C)cc(C(C)(C)C)c3OCC(F)F)cccc2s1`, the Ki in assay [1] was 55 nM; in assay [4] it was 8360 nM; in assay [5], 20 nM. The compound further returned an IC50 in assay [6] of 24 nM.
`CCCCCCCOc1c(-c2cccc3sc(/C(C)=C/C(=O)O)cc23)cc(C(C)(C)C)cc1C(C)(C)C`: the Ki in assay [1] was 12 nM; in assay [2], 5 nM; in assay [4], more than 10000 nM; in assay [5] it was 28 nM. Moreover, inhibition in assay [6] was half-maximal at 83 nM (IC50).
For `CCOc1c(-c2cccc3cc(/C(C)=C/C(=O)O)sc23)cc(C(C)C)cc1C(C)C`, the figures for the Ki in assay [2] and in assay [4] were 271 nM and 6020 nM, respectively. A half-maximal effect in assay [3] (EC50) was put at 390 nM.
`C/C(=C(/F)C(=O)O)c1cc2cccc(-c3cc(C(C)C)cc(C(C)C)c3OCC(F)F)c2o1`: the Ki in assay [1] is 4 nM; in assay [2], 101 nM; in assay [4] it was more than 10000 nM; in assay [5] it was 49 nM. Half-maximal inhibition in assay [6] (IC50) required 22 nM.
On to `CCOc1c(-c2cccc3sc(/C(C)=C/C(=O)O)cc23)cc(C(C)C)cc1C(C)C`, for which the Ki in assay [1] was 11 nM; in assay [2] it was 6 nM; in assay [4], more than 10000 nM; in assay [5], 12 nM. The half-maximal effective concentration (EC50) in assay [3] was determined as 20 nM.
On to `C/C(=C\C(=O)O)c1cc2cccc(-c3cc(C(C)C)cc(C(C)C)c3OCC(F)(F)F)c2o1`, for which the inhibitory constant (Ki) in assay [1] was 142 nM; in assay [2], 198 nM; in assay [5], 334 nM. Moreover, in assay [6], the half-maximal inhibitory concentration (IC50) turned out to be 347 nM.
As for `C/C(=C\C(=O)O)c1cc2c(-c3cc(C(C)(C)C)cc(C(C)(C)C)c3OCC(F)(F)F)cccc2s1`, the inhibition constant Ki in assay [1] is 10 nM; in assay [2] it was 3 nM; in assay [4] it was more than 10000 nM; in assay [5], 20 nM. In assay [6], this compound displayed an IC50 of 14 nM.
As to `C/C(=C\C(=O)O)c1cc2c(-c3cc(C(C)(C)C)cc(C(C)(C)C)c3OCCCF)cccc2s1`, the inhibition constant Ki came out at 10 nM in assay [1], 3 nM in assay [2], 7280 nM in assay [4] and 21 nM in assay [5]. This compound also registered a 50% inhibitory concentration (IC50) in assay [6] of 8 nM.
Turning to `C/C(=C\C(=O)O)c1cc2cccc(-c3cc(C(C)C)cc(C(C)C)c3OCCCF)c2o1`, the inhibition constant (Ki) is 47 nM in assay [2] and more than 10000 nM in assay [4]. In assay [6], this compound came in with an IC50 of 194 nM.
As for `CCCCOc1c(-c2cccc3cc(/C(C)=C(\F)C(=O)O)oc23)cc(C(C)C)cc1C(C)C`, the Ki in assay [1] is 64.5 nM; in assay [2], 16 nM; in assay [4], more than 10000 nM; in assay [5] it was 28 nM. The compound further yielded an IC50 in assay [6] of 11 nM.
Regarding `C/C(=C\C(=O)O)c1cc2cccc(-c3cc(C(C)C)cc(C(C)C)c3OCC(F)F)c2o1`, the Ki was 261 nM in assay [1], 161 nM in assay [2], more than 10000 nM in assay [4] and 500 nM in assay [5]. In addition, half-maximal inhibition in assay [6] (IC50) was put at 300 nM.
Take `Cc1cc2c(cc1C1(c3ccc(C(=O)O)cn3)CC1)C(C)(C)CCC2(C)C`: the inhibition constant (Ki) in assay [1] came to 7.5 nM.
On to `CCCOc1c(-c2cccc3cc(/C(C)=C/C(=O)O)oc23)cc(C(C)C)cc1C(C)C`, for which the values for the Ki in assay [2] and in assay [4] were 44 nM and 8500 nM, respectively. The midpoint of inhibition in assay [6], the IC50, lay at 128 nM.
Take `C/C(=C\C(=O)O)c1cc2c(-c3cc(C(C)(C)C)cc(C(C)(C)C)c3OCCC(F)F)cccc2s1`: the inhibitory constant (Ki) in assay [1] is 12 nM; in assay [2], 7 nM; in assay [4], more than 10000 nM; in assay [5], 37 nM. The compound also registered an IC50 in assay [6] of 16 nM.
In assay [3], `CCOc1c(-c2cccc3cc(/C(C)=C/C(=O)O)oc23)cc(C(C)C)cc1C(C)C` displayed an EC50 of 74 nM. In assay [4], this compound showed a Ki of more than 10000 nM.
